ChEMBL document CHEMBL1144763, “Synthesis of diglycosylceramides and evaluation of their iNKT cell stimulatory properties” (Bioorg Med Chem Lett, 2008)
Activity calls are given as the source filed them. The rule behind the calls is not given here.

test system: DN3.2.D3; assay: Stimulation of IL2 release in mouse DN3.2.D3 cells by ELISA; format: functional, cell-based

SMILES	Activity
CCCCCCCCCCCCCC[C@@H](O)[C@@H](O)[C@H](CO[C@H]1O[C@H](CNC(C)=O)[C@H](O)[C@H](O)[C@H]1O)NC(=O)CCCCCCC	Active
CCCCCCCCCCCCCC[C@@H](O)[C@@H](O)[C@H](CO[C@H]1O[C@H](CO)[C@H](O)[C@H](O)[C@H]1O)NC(=O)CCCCCCC	Active
CCCCCCCCCCCCCC[C@@H](O)[C@@H](O)[C@H](CO[C@H]1O[C@H](CNC(C)=O)[C@H](O)[C@H](O)[C@H]1O[C@H]1O[C@H](CO)[C@H](O)[C@H](O)[C@H]1O)NC(=O)CCCCCCC	Active
